The values below come from patent US20230192878A1, “METHODS, THERAPIES AND USES FOR TREATING CANCER” (PFIZER INC., priority 2020, published 2023).

Holding throughout (test): BCMAxCD3 bispecific mediated cell killing with human T cells, with or without GSI
What all share (format): cell-based

The subject of one assay is MM.1S-luc. As to conditions: MM.1S, 1 μM GSI. The procedure: (§1) CD3^+ T cells from PBMCs (Stem Cell Technologies) were negatively selected using EasySep Human T cell enrichment kit (Stem Cell Technologies). Multiple myeloma cells expressing luciferase (MM.1S-luc, OPM2-luc, H929-luc, Molp8-luc, RPM18226-luc) were treated with 1 μM GSI […]. After 24 hours, cells were seeded with 50,000 CD3^+ pan T cells in a clear 96-well V-bottom plate. Cells were further treated with a range of BCMAxCD3 bispecific antibody concentrations with or without 1 μM GSI. 60 hours after treatment, luciferase activity in treated cells was analyzed using NeoLite reagent kit (Perkin Elmer) and acquired on VictorX multimode plate reader (Perkin Elmer). Cell viability was calculated by dividing luciferase activity of treated cells over luciferase activity of untreated control (no BCMAxCD3 bispecific antibody added).

The next assay deals with RPMI8226. As to conditions: RPMI8226, 1 μM GSI. The procedure: as §1
A further assay relates to OPM2-luc. As to conditions: OPM2, 1 μM GSI. The procedure:
as §1

`CCC[C@H](N[C@H]1CCc2cc(F)cc(F)c2C1)C(=O)Nc1cn(C(C)(C)CNCC(C)(C)C)cn1` [GSI, nirogacestat]: the “Enhancement of BCMAxCD3 bispecific antibody mediated cell killing by GSI” value with MM.1S-luc amounted to 21 ×; with RPMI8226, 24 ×; in the assay with OPM2-luc, 21 ×.
